# Results taken from article PMC3030623 (Journal of the American Chemical Society, 2010).
# Biological target: T1, Sfp (Bacillus subtilis, UniProt P39135)
# T1 sequence (P39135 1-224): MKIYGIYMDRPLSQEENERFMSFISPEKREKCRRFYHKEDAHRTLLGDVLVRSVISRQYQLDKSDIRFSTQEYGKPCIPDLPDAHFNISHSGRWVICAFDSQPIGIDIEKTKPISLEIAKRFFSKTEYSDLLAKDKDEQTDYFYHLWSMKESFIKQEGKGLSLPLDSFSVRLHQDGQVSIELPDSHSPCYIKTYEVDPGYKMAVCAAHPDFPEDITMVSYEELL
# Assay: ESI-MS of acyl-phosphopantetheine transfer to apo-ACPtcsA
# Format: biochemical
# Conditions: co-substrate apo-ACPtcsA (ACP domain of TcsA)
smiles,measurement,value
"CC/C=C/C(=O)SCCNC(=O)CCNC(=O)[C@H](O)C(C)(C)COP(=O)(O)OP(=O)(O)OC[C@H]1O[C@@H](n2cnc3c(N)ncnc32)[C@H](O)[C@@H]1OP(=O)(O)O [compound 11, trans-2-pentenyl-CoA]",ESI-MS of acyl-phosphopantetheine transfer to apo-ACPtcsA,we biochemically converted apo-ACPtcsA to trans-2-pentenyl-ACPtcsA
